{"source": "paper PMC6287599", "about": "“2,6-Bis(2-Benzimidazolyl)Pyridine (BBP) Is a Potent and Selective Inhibitor of Small Conductance Calcium-Activated Potassium (SK) Channels” (Frontiers in Pharmacology, 2018)", "key": {"Kir2.1": {"target": "T1, Kir2.1 (Homo sapiens, UniProt P63252)", "T1 sequence (P63252 1-427)": "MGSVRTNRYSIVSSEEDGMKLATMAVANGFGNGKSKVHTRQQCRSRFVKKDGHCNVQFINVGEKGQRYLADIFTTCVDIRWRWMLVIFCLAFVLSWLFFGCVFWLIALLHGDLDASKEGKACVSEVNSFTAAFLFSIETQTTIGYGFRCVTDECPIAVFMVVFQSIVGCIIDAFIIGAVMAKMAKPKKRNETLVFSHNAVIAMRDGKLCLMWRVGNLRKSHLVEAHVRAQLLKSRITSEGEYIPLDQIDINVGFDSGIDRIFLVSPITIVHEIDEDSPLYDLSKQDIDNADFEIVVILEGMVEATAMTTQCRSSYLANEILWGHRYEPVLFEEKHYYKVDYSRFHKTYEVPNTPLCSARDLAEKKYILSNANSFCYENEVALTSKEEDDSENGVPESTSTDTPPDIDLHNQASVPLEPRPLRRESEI", "assay": "Two-electrode voltage clamp in Xenopus laevis oocytes, Kir2.1", "type": "cell-based", "conditions": "BBP 10 μM, TEVC, n = 5", "procedure": "cRNA was prepared from linearized plasmids using the mMESSAGE mMACHINE T7 kit (Ambion, USA) and quantified by UV spectroscopy (NanoDrop, Thermo Scientific, Wilmington, USA). Xenopus laevis oocytes were acquired from EcoCyte Bioscience (Castrop-Rauxel, Germany). Oocytes were injected with 50 nL cRNA and currents were recorded after 2 days of incubation at 19°C. Currents were recorded at a sampling rate of 10 kHz using a TEVC amplifier (Dagan CA-1B; IL, USA), and borosilicate glass recording electrodes (Module Ohm, Herlev, Denmark), made with a DMZ Universal Puller (Zeitz Instruments, Martinsried, Germany) with a resistance of 0.5–1 MΩ when filled with 2 M KCl. Oocytes were superfused with Kulori (pH 7.4) solution containing NaCl 90 mM, KCl 4 mM, MgCl2 1 mM, CaCl2 1 mM, 4-(2-hydroxyethyl)-1-piperazineethanesulfonic acid 5 mM, and currents were elicited with the voltage protocols previously indicated (Skarsfeldt et al., [2016]), from a holding potential of −80 mV. […]\n(§1) To assess the effect of BBP on other calcium-activated potassium channels (hBK, hSK3 WT, rSK3 H491N, and hIK), each individual current was first normalized to its cell size using membrane's capacitance (pA/pF) before statistical analysis. […] Statistical significance between saline and the effect of both BBP and the corresponding reference compound was determined for each channel using one-way ANOVA analysis. […]"}, "hSK2": {"target": "hSK2 (Homo sapiens, UniProt Q9H2S1)", "assay": "Manual whole cell patch clamp, HEK293 transiently transfected with hSK2", "type": "cell-based", "conditions": "BBP 1 μM, compared to positive control bicuculline methiodide 100 μM, n = 5, read-out: Inhibition of hSK2 current", "procedure": "HEK293 cells were transiently co-transfected with the plasmid of interest (hBK, hSK1, hSK2, hSK3 WT, rSK3 H491N, or hIK) and eGFP using standard Lipofectamine™ 2000 (Thermo Fisher Scientific, Waltham, Massachussets, USA) transfection protocols. After transfection, cells were incubated overnight before the experiments.\nManual patch clamp experiments were performed at room temperature in the whole cell configuration with a HEKA EPC9 amplifier and the Patchmaster software (HEKA Elektronik, Ludwigshafen, Germany). All currents were elicited every 2 s using an incremental 200 ms voltage-ramp protocol starting at −80 mV and finishing at +80 mV from a holding potential of 0 mV. […] Currents were measured using the same solutions as the ones used for automated patch clamp, with symmetrical potassium concentrations and a free intracellular calcium concentration of 400 nM. […]\nas §1"}}, "note": "“Also recorded” adds a separate entry of the source.", "data": [{"compound": "c1cc(-c2nc3ccccc3[nH]2)nc(-c2nc3ccccc3[nH]2)c1", "note": "[BBP, 2,6-Bis(2-benzimidazolyl)pyridine]", "values": [{"measurement": "Effect on Kir2.1 current", "setting": "Kir2.1", "result": "did not have any effect; also recorded: did not significantly affect"}, {"measurement": "inhibition at 1 µM", "setting": "hSK2", "result": "94.8 ± 2.1", "unit": "%"}]}]}
